These results are taken from patent US10738007B2, “Amide compounds as kinase inhibitors, compositions and methods of treatment” (TRANSLATIONAL DRUG DEVELOPMENT, LLC, priority 2016, dated 2020).

As a reminder, the IC50 is the concentration at which inhibition is half-maximal.

The target in one test is ROCK2 (Homo sapiens (Human), UniProt O75116). In words: ROCK2 kinase inhibition assay (peptide phosphorylation, LABCHIP 3000). It is filed as biochemical. Particulars: 7 μM ATP, 2.5 nM ROCK2, 3 hours at 25° C.
ROCK2, sequence (O75116 whole entry, species assumed): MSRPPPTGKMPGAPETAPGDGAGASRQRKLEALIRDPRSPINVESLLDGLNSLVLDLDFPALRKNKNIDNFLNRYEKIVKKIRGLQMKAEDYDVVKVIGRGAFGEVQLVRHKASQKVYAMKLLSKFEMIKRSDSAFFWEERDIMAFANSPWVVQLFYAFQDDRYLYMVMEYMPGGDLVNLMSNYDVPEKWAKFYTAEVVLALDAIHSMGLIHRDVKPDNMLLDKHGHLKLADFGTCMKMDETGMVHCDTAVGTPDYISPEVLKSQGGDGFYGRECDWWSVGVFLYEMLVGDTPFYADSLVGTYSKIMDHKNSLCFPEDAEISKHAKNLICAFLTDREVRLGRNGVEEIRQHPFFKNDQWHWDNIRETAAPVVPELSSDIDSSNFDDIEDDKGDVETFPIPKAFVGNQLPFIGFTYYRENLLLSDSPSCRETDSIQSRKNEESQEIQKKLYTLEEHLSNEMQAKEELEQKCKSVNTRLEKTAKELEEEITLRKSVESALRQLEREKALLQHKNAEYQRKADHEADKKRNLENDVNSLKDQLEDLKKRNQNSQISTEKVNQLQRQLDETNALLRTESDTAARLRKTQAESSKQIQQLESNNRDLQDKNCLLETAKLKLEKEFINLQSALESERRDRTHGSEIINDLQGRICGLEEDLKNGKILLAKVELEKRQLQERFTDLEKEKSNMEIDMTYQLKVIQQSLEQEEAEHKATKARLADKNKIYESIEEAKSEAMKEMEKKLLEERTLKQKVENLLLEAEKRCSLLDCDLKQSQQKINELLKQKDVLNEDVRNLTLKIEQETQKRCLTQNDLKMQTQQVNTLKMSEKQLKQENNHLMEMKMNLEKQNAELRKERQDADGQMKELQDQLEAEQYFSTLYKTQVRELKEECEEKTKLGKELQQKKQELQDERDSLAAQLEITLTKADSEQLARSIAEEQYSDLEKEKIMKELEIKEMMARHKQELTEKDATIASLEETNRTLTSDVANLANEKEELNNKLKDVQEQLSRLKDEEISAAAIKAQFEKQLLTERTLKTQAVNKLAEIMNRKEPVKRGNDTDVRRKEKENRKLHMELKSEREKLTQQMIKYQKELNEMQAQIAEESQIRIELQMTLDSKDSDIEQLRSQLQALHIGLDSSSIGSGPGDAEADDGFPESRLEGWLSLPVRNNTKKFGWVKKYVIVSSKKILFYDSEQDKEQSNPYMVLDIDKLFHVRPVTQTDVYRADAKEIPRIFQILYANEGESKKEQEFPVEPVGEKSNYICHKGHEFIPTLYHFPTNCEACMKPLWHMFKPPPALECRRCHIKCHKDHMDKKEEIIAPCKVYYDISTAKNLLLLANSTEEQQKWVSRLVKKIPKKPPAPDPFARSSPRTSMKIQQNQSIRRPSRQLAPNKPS
The test system of the next test is K562 cell line. In words: Cell viability assay ([…]-GLO), K562. The class given is cell-based. Particulars: Homo sapiens; K562 (does not express ITD-FLT3), 72 hours treatment. The procedure: Cell viability in the presence of varying concentrations of the above listed compounds at different time points was used to assess cytotoxicity and the effect of the compounds on cell proliferation.
Cell viability was measured by the […]-GlO® cell viability assay from Promega (Madison, Wis.). The […]-GlO Luminescent Cell Viability Assay is a homogeneous method to determine the number of viable cells in culture based on quantitation of the ATP present, which signals the presence of metabolically active cells. Following treatment, […]-GlO® is added to treatment wells and incubated at 37° C. Luminescence values were measured at using a Molecular Devices Spectramax microplate reader.
Cells were grown to 70% confluency, trypsinized, counted, and seeded in 96 well flat-bottom plates at a final concentration of 2.5×10^3-5×10^3 cells/well (Day 0). Cells were allowed to incubate in growth media for 24 hours. Treatment with the test agents or standard agents began on Day 1 and continued for 72 hours. At the 72-hour time point, treatment containing media was removed. Viable cell numbers were quantified by the […]-GLO® cell viability assay as described above. Results from these studies were used to calculate an IC50 value (concentration of drug that inhibits cell growth by 50 percent of control) for each compound.
For single agent and combination studies, data from each experiment was collected and expressed as % Cell Growth using the following calculation: % Cell Growth=(ftest/fvehicle)×100
Where ftest is the luminescence of the tested sample, and fvehicle is the luminescence of the vehicle in which the drug is dissolved. Dose response graphs and IC50 values were generated using Prism 6 software (GraphPad) using the following equation: Y=(Top−Bottom)/(1+10^((logIC50-X)−HillSlope))
Where X is the logarithm of the concentration and Y is the response. Y starts at the Bottom and goes to the Top with a sigmoid shape.
The experiments also evaluated the selectivity of the compounds for inhibiting growth of cancer cells carrying a mutation in the Flt3 gene. The MV411 cell line expresses the mutant allele of Flt3 with internal tandem duplications (ITD) of the gene. See Quentmeier et al., “FLT3 Mutations in Acute Myeloid Leukemia Cell Lines,” Leukemia 17(1), 2003, 120-124. […] See Grafone et al., “Monitoring of FLT3 Phosphorylation Status and Its Response to Drugs By Flow Cytometry in AML Blast Cells,” Hematol Oncol. 26(3), 2008, 159-166.

For a further test, the system named is MV411 cell line. In words: Cell viability assay ([…]-GLO), MV411. The following applies: for IC50: Homo sapiens, MV4-11, MV411 (ITD-FLT3+), 72 hours treatment; for FLT3-ITD+ Selectivity (K562/MV411): ratio K562/MV411. It is filed as cell-based.

Method for MV411 cell line: Cell viability was measured by the […] -GlO® cell viability assay from Promega (Madison, Wis.). The […] -GlO Luminescent Cell Viability Assay is a homogeneous method to determine the number of viable cells in culture based on quantitation of the ATP present, which signals the presence of metabolically active cells. Following treatment, […] -GlO® is added to treatment wells and incubated at 37° C. Luminescence values were measured at using a Molecular Devices Spectramax microplate reader.

For the compound `C[C@@H](NC(=O)c1ccc(-c2ccncc2)cc1)c1cccc(C(=O)Nc2ccc3c(c2)CN(C)CC3)c1` [Compound 6], the figures for the IC50 on ROCK2, with K562 cell line and in the test on MV411 cell line were 1.2 nM, 8000 nM and 200 nM, respectively. Moreover, the “FLT3-ITD+ Selectivity (K562/MV411)” value with MV411 cell line came out at 40.
Regarding `CN1Cc2ccc(NC(=O)c3cccc([C@@H](CO)NC(=O)c4ccc(-c5ccncc5)cc4)c3)cc2C1` [Compound 8], it took 1.3 nM to reach half-maximal inhibition against ROCK2 (IC50).
As to `O=C(Nc1ccccc1)c1cccc([C@@H](CO)NC(=O)c2ccc(-c3ccncc3)cc2)c1` [Compound 9], the values for the IC50 against ROCK2, with K562 cell line and in the test with MV411 cell line were 1.7 nM, 35000 nM and 800 nM, respectively. For the same compound, the “FLT3-ITD+ Selectivity (K562/MV411)” value with MV411 cell line came out at 47.
Taken in the same sequence, the figures for `CNC(=O)c1cccc([C@@H](CO)NC(=O)c2ccc(-c3ccncc3)cc2)c1` [Compound 11] were 2.7 nM, above 100000 nM, 12300 nM and above 8.
In the same order, the values of `O=C(NC1CC1)c1cccc([C@@H](CO)NC(=O)c2ccc(-c3ccncc3)cc2)c1` [Compound 12] are 1.8 nM, above 100000 nM, 540 nM and above 187.
In the same order, the values of `O=C(NCc1ccccc1)c1cccc([C@@H](CO)NC(=O)c2ccc(-c3ccncc3)cc2)c1` [Compound 13] are 1.7 nM, 27000 nM, 3000 nM and 9.
`CN(C)Cc1cccc(NC(=O)c2cccc([C@@H](CO)NC(=O)c3ccc(-c4ccncc4)cc3)c2)c1` [Compound 14]: the IC50 against ROCK2 was determined as 1.6 nM; with K562 cell line, 48000 nM; in the test with MV411 cell line it was 90 nM. For the same compound, in the test with MV411 cell line, the “FLT3-ITD+ Selectivity (K562/MV411)” value was determined as 532.
With `CC(NC(=O)c1ccc(-c2ccncc2)cc1)c1cccc(OCC(=O)NC2CC2)c1` (stereo not drawn) [Compound 15], the half-maximal inhibitory concentration (IC50) on ROCK2 was 9 nM; with K562 cell line, above 100000 nM; in the test with MV411 cell line, 4000 nM. Also, in the test with MV411 cell line, the “FLT3-ITD+ Selectivity (K562/MV411)” value is listed as above 25.
With `CC(NC(=O)c1ccc(-c2ccncc2)cc1)c1cccc(OCC(=O)Nc2ccc3c(c2)CN(C)CC3)c1` (stereo not drawn) [Compound 16], the IC50 is 3.6 nM against ROCK2, 30000 nM with K562 cell line and 1500 nM in the test on MV411 cell line. Besides, the “FLT3-ITD+ Selectivity (K562/MV411)” value in the test on MV411 cell line was 20.
For the compound `COc1ccc(C(=O)N[C@H](C)c2cccc(C(=O)Nc3nc4c(s3)CN(C)CC4)c2)cc1C` [Compound 17], the IC50 was 22.5 nM against ROCK2, above 100000 nM in the test on K562 cell line and 13500 nM with MV411 cell line. Also, the “FLT3-ITD+ Selectivity (K562/MV411)” value in the test with MV411 cell line is above 7.
Taken in the same sequence, the figures for `COc1ccc(C(=O)N[C@H](CO)c2cccc(C(=O)Nc3nc4c(s3)CN(C)CC4)c2)cc1C` [Compound 18] were 19.6 nM, above 100000 nM, 15900 nM and above 6.
As for `COc1ccc(C(=O)N[C@H](CO)c2cccc(C(=O)Nc3ccc4c(c3)CN(C)CC4)c2)cc1C` [Compound 19], the IC50 with K562 cell line was determined as 44000 nM. In the test on MV411 cell line, the midpoint of inhibition, the IC50, lay at 13200 nM and the “FLT3-ITD+ Selectivity (K562/MV411)” value is 3.
For `CN(C)CCc1ccc(NC(=O)c2cccc([C@@H](CO)NC(=O)c3ccc(-c4ccncc4)cc3)c2)cc1` [Compound 20], the values for the half-maximal inhibitory concentration (IC50) against ROCK2, with K562 cell line and in the test on MV411 cell line were 1.2 nM, 16000 nM and 10 nM, respectively. Besides, in the test with MV411 cell line, the “FLT3-ITD+ Selectivity (K562/MV411)” value was determined as 1585.
As to `O=C(NCC1CCOCC1)c1cccc([C@@H](CO)NC(=O)c2ccc(-c3ccncc3)cc2)c1` [Compound 22], the IC50 against ROCK2 was 0.57 nM; in the test on K562 cell line it was above 100000 nM; in the test with MV411 cell line it was 3800 nM. For the same compound, the “FLT3-ITD+ Selectivity (K562/MV411)” value in the test with MV411 cell line is above 27.
As for `CN1CCC(CNC(=O)c2cccc([C@@H](CO)NC(=O)c3ccc(-c4ccncc4)cc3)c2)CC1` [Compound 23], the IC50 at ROCK2 stood at 0.3 nM; in the test with K562 cell line, 56000 nM; in the test with MV411 cell line it was 90 nM. Moreover, the “FLT3-ITD+ Selectivity (K562/MV411)” value with MV411 cell line worked out at 632.
For the compound `COc1cccc(CN(CCN(C)C)C(=O)c2cccc([C@@H](CO)NC(=O)c3ccc(-c4ccncc4)cc3)c2)c1` [Compound 25], the IC50 with MV411 cell line is 18900 nM.
Take `CN1CCc2ccc(NC(=O)c3cccc([C@@H](CO)NC(=O)c4ccc(-c5ccncc5)cc4)c3)cc2C1=O` [Compound 27]: the IC50 against ROCK2 was found to be 0.39 nM; in the test on K562 cell line it was 25000 nM; in the test with MV411 cell line, 4400 nM. In addition, in the test with MV411 cell line, the “FLT3-ITD+ Selectivity (K562/MV411)” value stood at 6.
For `CN1CCOc2ccc(NC(=O)c3cccc([C@@H](CO)NC(=O)c4ccc(-c5ccncc5)cc4)c3)cc2C1` [Compound 29], in the test with MV411 cell line, the IC50 was 65100 nM.
Consider `CN(C)Cc1cccc(CNC(=O)c2cccc([C@@H](CO)NC(=O)c3ccc(-c4ccncc4)cc3)c2)c1` [Compound 33], for which the IC50 against ROCK2 was found to be 0.38 nM.
As to `COCCOc1cccc(CNC(=O)c2cccc([C@@H](CO)NC(=O)c3ccc(-c4ccncc4)cc3)c2)c1` [Compound 34], on ROCK2, it took 0.69 nM to reach half-maximal inhibition (IC50).
On to `CN1CCc2ccc(NC(=O)c3cccc([C@@H](CO)NC(=O)c4ccc(-c5ccncc5)cn4)c3)cc2C1` [Compound 37], for which the values for the IC50 on ROCK2 and in the test with MV411 cell line were 3 nM and 1700 nM, respectively.
As for `CN(C(=O)c1cccc([C@@H](CO)NC(=O)c2ccc(-c3ccncc3)cc2)c1)C1CC1` [Compound 38], the results for the half-maximal inhibitory concentration (IC50) on ROCK2 and in the test on MV411 cell line were 56 nM and 20000 nM, respectively.
Regarding `C[C@@H](NC(=O)c1ccc(-c2ccncc2)cc1)c1cccc(C(=O)NCc2ccc(CN(C)C)cc2)c1` [Compound 39], the IC50 came out at 0.3 nM on ROCK2, 9400 nM in the test on K562 cell line and 10 nM in the test with MV411 cell line. Besides, the “FLT3-ITD+ Selectivity (K562/MV411)” value in the test with MV411 cell line is recorded as 940.
Turning to `C[C@@H](NC(=O)c1ccc(-c2ccncc2)cc1)c1cccc(C(=O)NCC2CCC(F)(F)CC2)c1` [Compound 40], the 50% inhibitory concentration (IC50) came out at 0.41 nM against ROCK2 and 3400 nM in the test with MV411 cell line.
As to `CN1CCc2ccc(NC(=O)c3cccc([C@@H](CO)NC(=O)c4cccc(-c5ccncc5)c4)c3)cc2C1` [Compound 41], at ROCK2, inhibition was half-maximal at 6.53 nM (IC50).
Compound `CN1CCc2ccc(NC(=O)c3cccc([C@@H](CO)NC(=O)c4cccc(-c5ccn[nH]5)c4)c3)cc2C1` [Compound 42] displayed an IC50 at ROCK2 of 72.6 nM.
Turning to `CN1CCc2ccc(NC(=O)c3cccc([C@@H](CO)NC(=O)c4ccc(-c5ccn[nH]5)cc4)c3)cc2C1` [Compound 43], it took 9.3 nM to reach half-maximal inhibition against ROCK2 (IC50).
On ROCK2, `CN1CCc2ccc(NC(=O)c3cccc([C@@H](CO)NC(=O)c4ccc(-c5cccnc5)cc4)c3)cc2C1` [Compound 44] had an IC50 of 240 nM.
Consider `CN(C(=O)c1ccc(-c2ccncc2)cc1)[C@H](CO)c1cccc(C(=O)NC2CCCC2)c1` [Compound 45], for which inhibition against ROCK2 was half-maximal at 257 nM (IC50).
`O=C(NC1CCCC1)c1cccc([C@@H](CO)NC(=O)c2ccc(-c3cn[nH]c3)cc2)c1` [Compound 46]: the IC50 on ROCK2 came to 1.88 nM; in the test on K562 cell line it was 11000 nM; in the test with MV411 cell line, 90 nM. Besides, the “FLT3-ITD+ Selectivity (K562/MV411)” value in the test with MV411 cell line came to 122.
In the same order, the values of `CN(C)Cc1ccc(CNC(=O)c2cccc([C@@H](CO)NC(=O)c3ccc(-c4ccncc4)cn3)c2)cc1` [Compound 47] are 0.54 nM, 36000 nM, 100 nM and 360.
As to `O=C(NC1CCC1)c1cccc([C@@H](CO)NC(=O)c2ccc(-c3ccncc3)cc2)c1` [Compound 48], the concentration for half-maximal inhibition (IC50) is 1.01 nM against ROCK2, above 100000 nM with K562 cell line and 440 nM with MV411 cell line. The “FLT3-ITD+ Selectivity (K562/MV411)” value with MV411 cell line is listed as above 230.
Regarding `COc1ccc(C(=O)N[C@H](C)c2cccc(C(=O)NCC3CCN(C(C)C)CC3)c2)cc1C` [Compound 68], half-maximal inhibition at ROCK2 (IC50) required 104 nM.
Take `O=C(NC1CCCC1)c1cccc([C@@H](CO)NC(=O)c2cccc(-c3cn[nH]c3)c2)c1` [Compound 83]: the IC50 in the test with K562 cell line was above 100000 nM; in the test on MV411 cell line it was 3600 nM. Further, the “FLT3-ITD+ Selectivity (K562/MV411)” value in the test on MV411 cell line is above 28.
At ROCK2, `C[C@H](c1cccc(C(=O)NC2CCCC2)c1)N(CCN(C)C)C(=O)c1ccc(-c2ccncc2)cc1` [Compound 98] returned an IC50 of 0.23 nM.
Turning to `O=C(NC1CCCC1)c1cccc([C@@H](CO)NC(=O)c2cccc(-c3cn[nH]c3)c2)c1` [Compound 106], half-maximal inhibition against ROCK2 (IC50) was put at 20 nM.
`Cc1c[nH]c2nccc(Oc3c(F)cc(Nc4cc(Cl)nc(N)n4)cc3F)c12` [Compound A, reference compound]: the figures for the half-inhibitory concentration (IC50) in the test on K562 cell line and in the test on MV411 cell line were 800 nM and 700 nM, respectively.
